Reference: patent publication US20240270762A1, “PENICILLIN-BINDING PROTEIN INHIBITORS” (priority 2021, published 2024)
In brackets after ≈: the same amount, converted by molar mass.

Assays:
[1] = tested on: A. baumannii CDC-0036; assay: microbe, parasite or virus in culture; assay type: cell-based; details: Acinetobacter baumannii, CDC0036, read-out: MIC, A. baumannii CDC-0036
[2] = tested on: P. aeruginosa (ΔmexAB-oprM); assay: Broth microdilution MIC in iron-depleted CAMHB (IDM); assay type: cell-based; details: Pseudomonas aeruginosa; iron-depleted CAMHB (IDM); […]; read-out: Minimum inhibitory concentration, P. aeruginosa ΔmexAB-oprM
[3] = target: A. baumannii PBP2 (Acinetobacter baumannii, UniProt D0C8Z9); assay: Bocillin-FL competition binding via gel filtration, A. baumannii PBP2
In short: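 Competitive equilibrium binding; reporter Bocillin-FL. PBP + inhibitor (titration) pre-incubated → Bocillin-FL, 15 min → gel filtration → fluorescence. EC50 from Hill fit of fraction bound vs [inhibitor].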

[4] = tested on: P. aeruginosa CDC-0110; assay: microbe, parasite or virus in culture; assay type: cell-based; details: Pseudomonas aeruginosa, CDC0110, read-out: Minimum inhibitory concentration, P. aeruginosa CDC-0110
[5] = tested on: A. baumannii ATCC 17978; assay: microbe, parasite or virus in culture; assay type: cell-based; details: Acinetobacter baumannii, ATCC17978, read-out: MIC, A. baumannii ATCC 17978
[6] = tested on: A. baumannii 1258916; assay: microbe, parasite or virus in culture; assay type: cell-based, Acinetobacter baumannii; details: Acinetobacter baumannii, 1258916, read-out: MIC, A. baumannii 1258916
[7] = target: T1, PBP3 from Acinetobacter baumannii (ATCC 19606) (Acinetobacter baumannii, UniProt A0ABX6CK25); assay: Bocillin-FL fluorescence polarization competition binding, A. baumannii PBP3; details: fluorescence polarization competition binding assay using Bocillin-FL; read-out: A. baumannii PBP3 Potency
T1 sequence (A0ABX6CK25 64-610): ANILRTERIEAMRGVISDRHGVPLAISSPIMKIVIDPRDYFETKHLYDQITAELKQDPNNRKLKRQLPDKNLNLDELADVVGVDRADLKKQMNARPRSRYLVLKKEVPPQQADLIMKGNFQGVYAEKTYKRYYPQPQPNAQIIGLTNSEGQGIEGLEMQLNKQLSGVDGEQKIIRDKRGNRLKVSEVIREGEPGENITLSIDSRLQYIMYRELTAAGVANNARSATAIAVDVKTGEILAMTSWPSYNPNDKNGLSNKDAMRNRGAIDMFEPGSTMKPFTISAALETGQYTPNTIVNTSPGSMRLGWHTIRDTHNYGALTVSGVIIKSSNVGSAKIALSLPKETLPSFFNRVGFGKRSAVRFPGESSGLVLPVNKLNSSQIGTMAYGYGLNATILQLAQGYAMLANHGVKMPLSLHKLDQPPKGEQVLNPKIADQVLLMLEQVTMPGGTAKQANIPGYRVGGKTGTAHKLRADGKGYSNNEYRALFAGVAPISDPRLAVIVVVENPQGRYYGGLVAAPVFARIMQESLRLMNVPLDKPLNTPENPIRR
In short: (§1)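 Purified PBP was preincubated with inhibitor (E. coli PBP3 1.5 μM, 30 min; P. aeruginosa PBP3 0.75 μM, A. baumannii PBP3 0.2 μM and PBP1a 1 μM, 15 min), then Bocillin-FL (0.1 μM; 0.05 μM for PBP1a) added and FP read up to 60 min. EC50 = 50% loss of bound probe.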

[8] = target: T2, PBP3 from Pseudomonas aeruginosa (PAO1) (Pseudomonas aeruginosa, UniProt G3XD46); assay: Bocillin-FL fluorescence polarization competition binding, P. aeruginosa PBP3; details: Binding affinity to P. aeruginosa PBP3; fluorescence polarization competition binding assay using Bocillin-FL; read-out: P. aeruginosa PBP3 Potency
T2 construct: made in house
In short: as §1

T2 sequence (G3XD46 whole entry): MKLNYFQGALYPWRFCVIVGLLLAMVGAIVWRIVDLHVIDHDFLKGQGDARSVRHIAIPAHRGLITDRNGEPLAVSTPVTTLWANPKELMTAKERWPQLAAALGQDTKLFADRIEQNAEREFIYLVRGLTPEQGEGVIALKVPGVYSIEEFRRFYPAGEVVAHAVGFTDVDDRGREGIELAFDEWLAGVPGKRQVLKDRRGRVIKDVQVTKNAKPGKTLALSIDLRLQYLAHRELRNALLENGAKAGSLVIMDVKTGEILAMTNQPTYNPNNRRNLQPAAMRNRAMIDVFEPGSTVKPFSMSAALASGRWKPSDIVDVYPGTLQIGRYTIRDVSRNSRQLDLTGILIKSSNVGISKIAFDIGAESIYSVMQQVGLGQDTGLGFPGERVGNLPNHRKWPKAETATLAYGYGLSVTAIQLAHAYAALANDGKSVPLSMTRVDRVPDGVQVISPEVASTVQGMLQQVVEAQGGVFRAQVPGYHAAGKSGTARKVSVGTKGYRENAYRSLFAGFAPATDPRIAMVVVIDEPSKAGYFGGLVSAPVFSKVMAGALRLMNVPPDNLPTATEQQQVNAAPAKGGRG
Chain of A. baumannii PBP2 (D0C8Z9 whole entry): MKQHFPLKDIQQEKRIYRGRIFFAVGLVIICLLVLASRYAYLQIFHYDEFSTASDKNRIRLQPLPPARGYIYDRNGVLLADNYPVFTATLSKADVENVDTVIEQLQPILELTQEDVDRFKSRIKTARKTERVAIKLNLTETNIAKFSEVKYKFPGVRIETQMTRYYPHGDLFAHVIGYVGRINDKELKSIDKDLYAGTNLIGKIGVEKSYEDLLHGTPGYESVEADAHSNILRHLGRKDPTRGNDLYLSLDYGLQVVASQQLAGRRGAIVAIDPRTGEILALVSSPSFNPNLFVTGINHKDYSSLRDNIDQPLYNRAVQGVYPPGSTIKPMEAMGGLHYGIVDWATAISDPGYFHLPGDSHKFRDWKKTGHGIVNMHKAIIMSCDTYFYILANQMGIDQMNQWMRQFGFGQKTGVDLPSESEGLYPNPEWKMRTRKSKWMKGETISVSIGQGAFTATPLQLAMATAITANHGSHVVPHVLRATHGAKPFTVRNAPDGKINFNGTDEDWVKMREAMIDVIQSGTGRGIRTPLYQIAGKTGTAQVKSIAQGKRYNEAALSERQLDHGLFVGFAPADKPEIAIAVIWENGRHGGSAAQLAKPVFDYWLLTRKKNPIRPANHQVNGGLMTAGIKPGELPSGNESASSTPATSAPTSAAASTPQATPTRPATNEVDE

In the case of `O=C(O)c1c(F)ccc2c1OB(O)[C@@H](NC(=O)[C@H](NC(=O)N1CCN(C3CCN(C(=O)Nc4ccc(O)cc4)CC3)C1=O)c1cc(F)c(O)c(O)c1Cl)C2` (single isomer, unassigned) [Example 468], the MIC [1] is reported as < 1 µg/mL, the MIC [2] is reported as < 1 µg/mL and the EC50 [3] is reported as < 10 µM. The MIC [4] was < 1 µg/mL, the MIC [5] was < 1 µg/mL and the MIC [6] was < 1 µg/mL. The IC50 [7] was < 10 µM and the IC50 [8] was < 10 µM.
In the case of `O=C(NCCCN1CCN(C(=O)N[C@@H](C(=O)N[C@H]2Cc3ccc(F)c(C(=O)O)c3OB2O)c2cc(F)c(O)c(O)c2Cl)C(=O)C1=O)c1ccc(O)cc1Cl` (single isomer, unassigned) [Example 471], the MIC [1] is reported as 2 to 4 µg/mL (≈ 2.52 to 5.04 µM), the MIC [2] is reported as < 1 µg/mL and the EC50 [3] is reported as < 10 µM. For the same molecule, the MIC [4] was < 1 µg/mL, the MIC [5] was < 1 µg/mL and the MIC [6] was < 1 µg/mL. For the same molecule, the IC50 [7] was < 10 µM and the IC50 [8] was < 10 µM.
For `O=C(NCCCN1CCN(C(=O)N[C@@H](C(=O)N[C@H]2Cc3ccc(F)c(C(=O)O)c3OB2O)c2cc(F)c(O)c(O)c2Cl)C(=O)C1=O)c1cc(F)c(O)cc1F` (single isomer, unassigned) [Example 473], the MIC [1] was 2 to 4 µg/mL (≈ 2.51 to 5.03 µM), the MIC [2] was < 1 µg/mL and the EC50 [3] was < 10 µM. The MIC [4] was < 1 µg/mL, the MIC [5] was < 1 µg/mL and the MIC [6] was 2 to 4 µg/mL (≈ 2.51 to 5.03 µM). The IC50 [7] was < 10 µM and the IC50 [8] was < 10 µM.
In the case of `O=C(NCCCS(=O)(=O)N1CCN(C(=O)NC(C(=O)N[C@H]2Cc3ccc(F)c(C(=O)O)c3OB2O)c2cc(F)c(O)c(O)c2Cl)C1=O)Nc1cccc(O)c1` (stereo partly drawn) [Example 277, (3R)-3-(2-(2-chloro-5-fluoro-3,4-dihydroxyphenyl)-2-(3-((3-(3-(3-hydroxyphenyl)ureido)propyl)sulfonyl)-2-oxoimidazolidine-1-carboxamido)acetamido)-7-fluoro-2-hydroxy-3,4-dihydro-2H-benzo[e][1,2]oxaborinine-8-carboxylic acid], the MIC [1] is reported as 2 to 4 µg/mL (≈ 2.47 to 4.93 µM), the MIC [2] is reported as < 1 µg/mL and the EC50 [3] is reported as < 10 µM. For the same molecule, the MIC [4] was 8 to 16 µg/mL (≈ 9.87 to 19.7 µM), the MIC [5] was < 1 µg/mL and the MIC [6] was 2 to 4 µg/mL (≈ 2.47 to 4.93 µM). The IC50 [7] was < 10 µM and the IC50 [8] was < 10 µM.
With `O=C(NCCN1CCN(C(=O)N[C@@H](C(=O)N[C@H]2Cc3ccc(F)c(C(=O)O)c3OB2O)c2cc(F)c(O)c(O)c2Cl)C1=O)Nc1ccc(O)cc1` [Example 279, (R)-3-((R)-2-(2-chloro-5-fluoro-3,4-dihydroxyphenyl)-2-(3-(2-(3-(4-hydroxyphenyl)ureido)ethyl)-2-oxoimidazolidine-1-carboxamido)acetamido)-7-fluoro-2-hydroxy-3,4-dihydro-2H-benzo[e][1,2]oxaborinine-8-carboxylic acid] the MIC [1] was < 1 µg/mL, the MIC [2] was < 1 µg/mL and the EC50 [3] was 10 to 50 µM. The MIC [4] was < 1 µg/mL, the MIC [5] was < 1 µg/mL and the MIC [6] was < 1 µg/mL. For the same molecule, the IC50 [7] was < 10 µM and the IC50 [8] was < 10 µM.
`O=C(NCCCN1CCN(C(=O)NC(C(=O)N[C@H]2Cc3ccc(F)c(C(=O)O)c3OB2O)c2cc(F)c(O)c(O)c2Cl)C1=O)c1ccc(O)cc1` (stereo partly drawn) [Example 280, (3R)-3-(2-(2-chloro-5-fluoro-3,4-dihydroxyphenyl)-2-(3-(3-(4-hydroxybenzamido)propyl)-2-oxoimidazolidine-1-carboxamido)acetamido)-7-fluoro-2-hydroxy-3,4-dihydro-2H-benzo[e][1,2]oxaborinine-8-carboxylic acid] was tested, and the MIC [1] was 2 to 4 µg/mL (≈ 2.73 to 5.47 µM), the MIC [2] was < 1 µg/mL and the EC50 [3] was 10 to 50 µM. For the same molecule, the MIC [4] was 2 to 4 µg/mL (≈ 2.73 to 5.47 µM), the MIC [5] was < 1 µg/mL and the MIC [6] was < 1 µg/mL. The IC50 [7] was < 10 µM and the IC50 [8] was < 10 µM.
`O=C(NCCCN1CCN(C(=O)N[C@@H](C(=O)N[C@H]2Cc3ccc(F)c(C(=O)O)c3OB2O)c2cc(F)c(O)c(O)c2Cl)C1=O)Nc1ccc(O)cc1` [Example 284, (R)-3-((R)-2-(2-chloro-5-fluoro-3,4-dihydroxyphenyl)-2-(3-(3-(3-(4-hydroxyphenyl)ureido)propyl)-2-oxoimidazolidine-1-carboxamido)acetamido)-7-fluoro-2-hydroxy-3,4-dihydro-2H-benzo[e][1,2]oxaborinine-8-carboxylic acid] was tested, and the MIC [1] was < 1 µg/mL, the MIC [2] was < 1 µg/mL and the EC50 [3] was < 10 µM. For the same molecule, the MIC [4] was < 1 µg/mL, the MIC [5] was < 1 µg/mL and the MIC [6] was < 1 µg/mL. For the same molecule, the IC50 [7] was < 10 µM and the IC50 [8] was < 10 µM.
For `O=C(NCCCN1CCN(C(=O)NC(C(=O)N[C@H]2Cc3ccc(F)c(C(=O)O)c3OB2O)c2cc(F)c(O)c(O)c2Cl)C1=O)Nc1ccncc1` (stereo partly drawn) [Example 285, (3R)-3-(2-(2-chloro-5-fluoro-3,4-dihydroxyphenyl)-2-(2-oxo-3-(3-(3-(pyridin-4-yl)ureido)propyl)imidazolidine-1-carboxamido)acetamido)-7-fluoro-2-hydroxy-3,4-dihydro-2H-benzo[e][1,2]oxaborinine-8-carboxylic acid], the MIC [1] was 8 to 16 µg/mL (≈ 10.9 to 21.9 µM), the MIC [2] was < 1 µg/mL and the EC50 [3] was 10 to 50 µM. The MIC [4] was 8 to 16 µg/mL (≈ 10.9 to 21.9 µM), the MIC [5] was < 1 µg/mL and the MIC [6] was 2 to 4 µg/mL (≈ 2.73 to 5.47 µM). The IC50 [7] was < 10 µM and the IC50 [8] was < 10 µM.
With `O=C(NCCS(=O)(=O)N1CCN(C(=O)N[C@@H](C(=O)N[C@H]2Cc3ccc(F)c(C(=O)O)c3OB2O)c2cc(F)c(O)c(O)c2Cl)C1=O)c1ccc(O)cc1` [Example 287, (R)-3-((R)-2-(2-chloro-5-fluoro-3,4-dihydroxyphenyl)-2-(3-((2-(4-hydroxybenzamido)ethyl)sulfonyl)-2-oxoimidazolidine-1-carboxamido)acetamido)-7-fluoro-2-hydroxy-3,4-dihydro-2H-benzo[e][1,2]oxaborinine-8-carboxylic acid] the MIC [1] was 2 to 4 µg/mL (≈ 2.56 to 5.12 µM), the MIC [2] was < 1 µg/mL and the EC50 [3] was < 10 µM. The MIC [4] was < 1 µg/mL, the MIC [5] was < 1 µg/mL and the MIC [6] was < 1 µg/mL. For the same molecule, the IC50 [7] was < 10 µM and the IC50 [8] was < 10 µM.
`O=C(NCCS(=O)(=O)N1CCN(C(=O)NC(C(=O)N[C@H]2Cc3ccc(F)c(C(=O)O)c3OB2O)c2cc(F)c(O)c(O)c2Cl)C1=O)Nc1ccc(O)cc1` (stereo partly drawn) [Example 289, (3R)-3-(2-(2-chloro-5-fluoro-3,4-dihydroxyphenyl)-2-(3-((2-(3-(4-hydroxyphenyl)ureido)ethyl)sulfonyl)-2-oxoimidazolidine-1-carboxamido)acetamido)-7-fluoro-2-hydroxy-3,4-dihydro-2H-benzo[e][1,2]oxaborinine-8-carboxylic acid] was tested, and the MIC [1] was 2 to 4 µg/mL (≈ 2.51 to 5.02 µM), the MIC [2] was < 1 µg/mL and the EC50 [3] was 10 to 50 µM. The MIC [4] was 2 to 4 µg/mL (≈ 2.51 to 5.02 µM), the MIC [5] was < 1 µg/mL and the MIC [6] was < 1 µg/mL. For the same molecule, the IC50 [7] was < 10 µM and the IC50 [8] was < 10 µM.
With `O=C(NCCS(=O)(=O)N1CCN(C(=O)N[C@@H](C(=O)N[C@H]2Cc3ccc(F)c(C(=O)O)c3OB2O)c2cc(F)c(O)c(O)c2Cl)C1=O)Nc1ccncc1` [Example 290, (R)-3-((R)-2-(2-chloro-5-fluoro-3,4-dihydroxyphenyl)-2-(2-oxo-3-((2-(3-(pyridin-4-yl)ureido)ethyl)sulfonyl)imidazolidine-1-carboxamido)acetamido)-7-fluoro-2-hydroxy-3,4-dihydro-2H-benzo[e][1,2]oxaborinine-8-carboxylic acid] the MIC [1] was 2 to 4 µg/mL (≈ 2.56 to 5.12 µM), the MIC [2] was < 1 µg/mL and the EC50 [3] was < 10 µM. For the same molecule, the MIC [4] was < 1 µg/mL, the MIC [5] was < 1 µg/mL and the MIC [6] was < 1 µg/mL. The IC50 [7] was < 10 µM and the IC50 [8] was < 10 µM.
For `O=C(O)c1c(F)ccc2c1OB(O)[C@@H](NC(=O)C(NC(=O)N1CCN(C3CCN(C(=O)c4cccc(O)c4)CC3)C(=O)C1=O)c1cc(F)c(O)c(O)c1Cl)C2` (stereo partly drawn) [Example 293, (3R)-3-(2-(2-chloro-5-fluoro-3,4-dihydroxyphenyl)-2-(4-(1-(3-hydroxybenzoyl)piperidin-4-yl)-2,3-dioxopiperazine-1-carboxamido)acetamido)-7-fluoro-2-hydroxy-3,4-dihydro-2H-benzo[e][1,2]oxaborinine-8-carboxylic acid], the MIC [1] was < 1 µg/mL, the MIC [2] was < 1 µg/mL and the EC50 [3] was 10 to 50 µM. The MIC [4] was < 1 µg/mL, the MIC [5] was < 1 µg/mL and the MIC [6] was < 1 µg/mL. The IC50 [7] was < 10 µM and the IC50 [8] was < 10 µM.
